Results reported in patent publication EP4692071A1, “PHOTOCHROMIC COMPOUND, NAPHTHOL DERIVATIVE, CURABLE COMPOSITION, OPTICAL ARTICLE, LENS, AND EYEGLASS” (TOKUYAMA CORPORATION, priority 2023, dated 2024).

Key:
Format in all cases: physicochemical
[1] = Maximum absorption wavelength (λmax) after color development, spectrophotometer MCPD3000
Description: (§1) • [1] Maximum Absorption Wavelength (λmax): The maximum absorption wavelength after color development, measured using a spectrophotometer (instantaneous multichannel photodetector MCPD3000) manufactured by Otsuka Electronics Co., Ltd. was used as an indicator for the color tone during the color development. • [2] 23°C Color Optical Density (A23): A difference between an absorbancy measured after light irradiation at 23°C for 240 seconds {ε(240)} and an absorbancy without light irradiation ε(0) at the maximum absorption wavelength was used as an indicator for the color optical density. […] 35°C Color Optical Density (A35): A difference between an absorbancy measured after light irradiation at 35°C for 240 seconds {ε(240)} and an absorbancy without light irradiation ε(0) at the first and second absorption wavelengths was used as an indicator for the color optical density. […] 23°C color fading half-life [τ1/2 (sec.)]: A time required for the absorbancy of the sample at the maximum absorption wavelength to decrease to 1/2 of {ε(240)-ε(0)} when the light irradiation is terminated after the light irradiation at 23°C for 240 seconds, was used as an indicator for the color fading speed. The shorter this time, the higher the color fading speed. • [6] Residual rate (A90/A0×100): The obtained photochromic plastic lens was subjected to accelerated deterioration using a xenon weather meter X25 manufactured by Suga Test Instruments Co., Ltd. for 90 hours. Subsequently, the color optical density was evaluated before and after the test, then a color optical density before the test (A0) and a color optical density after the test (A90) were measured, and a ratio (A90/A0) was defined as a residual rate. The residual rate was used as an indicator for a color developing durability. The higher the residual rate, the higher the color developing durability.

[2] = 23°C color optical density (A23): absorbancy difference ε(240)-ε(0) after 240 s light irradiation at 23°C; settings: 240 s irradiation
Description: as §1

[3] = 35°C color optical density (A35): absorbancy difference ε(240)-ε(0) after 240 s light irradiation at 35°C; settings: 240 s irradiation
Description: as §1

[4] = High-temperature color development rate (A35/A23×100), temperature dependency
Description: as §1

[5] = Residual rate (A90/A0×100) after 90 h accelerated deterioration in xenon weather meter X25, color developing durability; settings: xenon weather meter 90 hours
Description: as §1

[6] = binder sheet (binder method), urethaneurea resin photochromic layer between polycarbonate sheets, 0.25 mmol per 100 parts by mass resin
[7] = photochromic cured product by kneading method, 1 mm thick thiourethane, 0.106 mmol per 100 g monomers
[8] = photochromic laminate by coating method, 40 µm photochromic layer on thiourethane lens, 0.25 mmol compound per 100 g monomers
[9] = cured product by kneading method, 1 mm
[10] = photochromic laminate by coating method, at the maximum absorption wavelength
[11] = photochromic laminate by coating method

Compound | Maximum absorption wavelength (nm) [1, 6] | Maximum absorption wavelength (nm) [1, 7] | Maximum absorption wavelength (nm) [1, 8] | A23 (-) ([2]; binder sheet (binder method)) | A23 (-) [2, 9] | A23 (-) [2, 10] | A35 (-) ([3]; binder sheet (binder method)) | A35 (-) [3, 9] | A35 (-) [3, 11] | A35/A23 *100 (%) ([4]; binder sheet (binder method)) | A35/A23 *100 (%) [4, 9] | A35/A23 *100 (%) [4, 11] | Residual rate (%) ([5]; binder sheet (binder method)) | Residual rate (%) [5, 9] | Residual rate (%) [5, 11]
CCCOc1ccc(C2(c3ccc(OCCC)cc3)C=Cc3c4c(c5cc(N(C)c6ccc(C)cc6)c(OC)cc5c3O2)-c2ccccc2C4(CCCCOC)CCCCOC)cc1 [Example 20 Formula (85)] | 503 nm | 507 nm | 503 nm | 1.23 - | 1.24 - | 1.22 - | 0.86 - | 0.87 - | 0.85 - | 70% | 70% | 70% | 93% | 85% | 81%
CCCC1(CCC)c2ccccc2-c2c1c1c(c3cc(OC)c(N4CCOc5ccccc54)cc23)OC(c2ccc(OC)cc2)(c2ccc(OC)cc2)C=C1 [Example 10 Formula (59)] | 510 nm | 514 nm | 510 nm | 1.32 - | 1.34 - | 1.3 - | 0.87 - | 0.91 - | 0.86 - | 66% | 68% | 66% | 94% | 89% | 82%
CCCC1(CCC)c2ccccc2-c2c1c1c(c3cc(OC)c(N(C)c4ccccc4)cc23)OC(c2ccc(OC)cc2)(c2ccc(OC)cc2)C=C1 [Example 3 Formula (32)] | 498 nm | 502 nm | 498 nm | 1.11 - | 1.12 - | 1.0897 - | 0.76 - | 0.77 - | 0.74 - | 68% | 69% | 68% | 97% | 90% | 84%
CCCCC1(CCCC)c2cc([Si](C)(C)C(C)(C)C)ccc2-c2c1c1c(c3cc(OC)c(N(CC)c4ccccc4)cc23)OC(c2ccc(OC)cc2)(c2ccc(OCCC)cc2)C=C1 (stereo not shown) [Example 46 Formula (99)] |  |  | 504 nm |  |  | 1.29 - |  |  | 0.90 - |  |  | 70% |  |  | 78%
CCCOc1ccc(C2(c3ccc(OCCC)cc3)C=Cc3c4c(c5cc(N6CCOc7cc(C)ccc76)c(OC)cc5c3O2)-c2ccc(-c3ccc(C(F)(F)F)cc3)cc2C4(CCOC)CCOC)cc1 [Example 48 Formula (106)] | 513 nm |  | 513 nm | 1.39 - |  | 1.36 - | 0.90 - |  | 0.88 - | 65% |  | 65% | 93% |  | 77%
CCCOc1ccc(C2(c3ccc(OCCC)cc3)C=Cc3c4c(c5cc(N(c6ccc(C)cc6)c6ccc(C)cc6)c(OC)cc5c3O2)-c2ccccc2C4(CCCCOCOC)CCCCOCOC)cc1 [Example 14 Formula (71)] | 521 nm |  | 521 nm | 1.93 |  | 1.89 - | 1.36 - |  | 1.33 - | 70% |  | 70% | 94% |  | 82%
COc1ccc(C2(c3ccc(OC)cc3)C=Cc3c4c(c5cc(N6CCOc7ccccc76)c(OC)cc5c3O2)-c2ccccc2C4(C)C)cc1 [Example 19 Formula (83)] | 515 nm | 519 nm | 515 nm | 1.36 - | 1.37 - | 1.34 - | 0.91 - | 0.91 - | 0.90 - | 67% | 67% | 67% | 91% | 83% | 77%
CCCOc1ccc(C2(c3ccc(OC)cc3)C=Cc3c4c(c5cc(N(C)c6ccccc6)c(C)cc5c3O2)-c2ccc(C)cc2C4(CCCCOC)CCCCOC)cc1 (stereo not shown) [Example 17 Formula (79)] |  | 562 nm | 558 nm |  | 1.09 - | 1.06 - |  | 0.75 - | 0.71 - |  | 69% | 67% |  | 84% | 78%
COc1ccc(C2(c3ccc(OC)cc3)C=Cc3c4c(c5cc(N(c6ccccc6)c6ccccc6)c(OC)cc5c3O2)-c2ccccc2C4(C)C)cc1 [Example 2 Formula (30)] | 510 nm | 514 nm | 510 nm | 1.52 - | 1.51 - | 1.49 - | 1.07 - | 1.07 - | 1.05 - | 70% | 71% | 70% | 94% | 88% | 82%
CCCCCCC1(CCCCCC)c2cc(Oc3ccccc3)ccc2-c2c1c1c(c3cc(OC)c(N(c4ccccc4)c4ccc(C)cc4)cc23)OC(c2ccc(OC)cc2)(c2ccc(OCCCC)cc2)C=C1 (stereo not shown) [Example 52 Formula (119)] |  |  | 518 nm |  |  | 1.82 - |  |  | 1.34 - |  |  | 74% |  |  | 79%
COc1ccc(C2(c3ccc(OC)cc3)C=Cc3c4c(c5cc(N(C)c6ccc(F)cc6)c(OC)cc5c3O2)-c2ccccc2C4(C)C)cc1 [Example 4 Formula (34)] | 496 nm | 500 nm | 496 nm | 1.20 - | 1.20 - | 1.18 - | 0.79 - | 0.81 - | 0.78 - | 66% | 67% | 66% | 93% | 84% | 80%
